In patent US5691344A, “Vasoconstrictive substituted dihydropyranopyridines” (Janssen Pharmaceutica, N.V., priority 1993, dated 1997):
Structures can show the parent of a compound that is named as a salt.

The compounds below were run on basilar arteries (assay: Constriction of isolated basilar artery segments of pigs (serotonin-like response, % of response to serotonin)). Conditions: Sus scrofa; constrictive response expressed as percentage of previous response to serotonin (3×10^-7 M); Krebs-Henseleit solution, 37° C.; read-out: IC50 (the source's name).
Source text: The compounds of formula (I), the pharmaceutically acceptable acid-additionsalts and stereochemically isomeric forms thereof have interesting pharmacological properties: they show 5HT1-like agonistic activity. The compounds of the present invention have a remarkable vasoconstrictor activity. They are useful to prevent and treat conditions which are related to vasodilatation. For instance, they are useful in the treatment of conditions characterized by or associated with cephalic pain, e.g. cluster headache and headache associated with vascular disorders, especially migraine. These compounds are also useful in the treatment of venous insufficiency and in the treatment of conditions associated with hypotension. The vasoconstrictor activity of the compounds of formula (I) can be determined using an in vitro-test as is described in "Instantaneous changes of alpha-adrenoreceptor affinity caused by moderate cooling in canine cutaneous veins" in the American Journal of Physiology 234(4), H330-H337, 1978; or in the test described in the pharmacological example, wherein the serotonin-like response of the compounds of the present invention was tested on the basilar arteries of pigs.
Segments of basilar arteries taken from pigs (anaesthetised with sodium pentobarbital) were mounted for recording of isometric tension in organ baths. The preparations were bathed in Krebs--Henseleit solution. The solution was kept at 37° C. and gassed with a mixture of 95% O2 -5% CO2. The preparations were stretched until a stable basal tension of 2 grams was obtained.
The preparations were made to constrict with serotonin (3×10^-7 M). The response to the addition of serotonin was measured and subsequently the serotonin was washed away. This procedure was repeated until stable responses were obtained. Subsequently the test compound was administered to the organ bath and the constriction of the preparation was measured. This constrictive response was expressed as a percentage of the response to serotonin as measured previously.

Row | Compound | EC50 [µM]
1 | c1cnc(NCCCNCC2CCc3cccnc3O2)nc1 (racemic) [Co. No. 1, (±)-N-[(3,4-dihydro-2H-pyrano[2,3-b]-pyridin-2-yl)methyl]-N'-2-pyrimidinyl-1,3-propanediamine trihydrochloride. 2-propanolate(1:1). monohydrate] | 0.071
2 | c1cnc2c(c1)CCC(CNCCCNC1=NCCCN1)O2 (racemic) [Co. No. 2, N-[(3,4-dihydro-2H-pyrano[2,3-b]pyridin-2-yl)methyl]-N'-(1,4,5,6-tetrahydro-2-pyrimidinyl)-1,3-propanediamine dihydrochloride. 2-propanolate (2:1). monohydrate] | 0.13
3 | [O-][n+]1cccc2c1OC(CNCCCNc1ncccn1)CC2 (racemic) [Co. No. 3, (±)-N-(3,4-dihydro-2H-pyrano[2,3-b]pyridon-2-yl)methyl]-N'-2-pyrimidinyl-1,3-propanediamine, N-oxide ethanedioate (2:1). monohydrate] | 0.34
4 | CSc1nccc(NCCCNCC2CCc3cccnc3O2)n1 (racemic) [Co. No. 5] | 0.26
5 | c1ccc(NCCCNCC2CCc3cccnc3O2)nc1 (racemic) [Co. No. 6] | 0.12
